These results are taken from a melting point compilation (Tetko et al.; mined from patent text by program, amines drawn as free bases though some values may be those of a salt).

With `O=C1CCc2ccc(OCCCCN3CCCN(c4cccc(Cl)c4Cl)CC3)nc2N1`, the melting point fell in the range of 110 to 111 °C.
For `Clc1cccc(CNc2ncnc3nc[nH]c23)c1` the value was 252 °C.
For `Cc1ccc(S(=O)(=O)OCCC2(O)CCc3cc(F)ccc3C2C(C)C)cc1` (configuration not stated) the value was 65 to 67 °C; for `Cn1ccn(Cc2ccc([N+](=O)[O-])cc2)c1=S`, 162 to 168 °C.
For `C#Cc1ccc(OC)c(OC)c1` the value was 71 to 72 °C.
The compound `COc1ccc(OC2COc3ccc(OCc4ccc5ccccc5n4)cc3C2O)cc1` (configuration not stated) yielded a melting point of 131 to 132 °C.
For `Oc1cc(Br)cc(-c2ccc3nonc3c2)c1` the value was 179 to 181 °C; for `O=C(Nc1c(Cl)cncc1Cl)c1ccc(OC(F)F)c2oc3ccc(C(F)(F)F)cc3c12`, 228 °C; for `Cc1nn(-c2ccc(Br)cc2)cc1C(=O)N(CC(=O)O)c1ccc(OCC(C)(C)C)c(C#N)c1`, 169 to 170 °C.
As for `O=Cc1cccn2c(Br)cnc12`, the figure is 104 to 106 °C; as for `CN1CCCC1c1ccc(Nc2cc(-c3cc(F)cc(N4CCc5c(sc6c5CCCC6)C4=O)c3CO)cn(C)c2=O)nc1` (configuration not stated), 164 to 166 °C.
For the compound `CCCN(CCCc1c[nH]c2ccc(F)cc12)C1COc2ccc3ncccc3c2C1` (single isomer, unassigned; (+)), the melting point worked out at 106 °C.
As for `Cc1cc(-c2cn[nH]c2N)cc(C)n1`, the figure is 222 °C.
With `CC1(C)C(=O)Nc2cc3[nH]c(N)nc3cc21`, the melting point was in the range of 300 to 305 °C.
For `COc1cc(CC(=O)O)ccc1CNC(=O)C1Cc2ccccc2N1S(=O)(=O)c1ccc(-c2cccc(C(F)(F)F)c2)cc1` (configuration not stated) the value was 99 to 105 °C; for `COc1ccc(-c2cc(N3CCCCC3)c(C#N)c3c2-c2ccccc2C3)cc1`, 202 to 204 °C.
For `COc1cc(C#N)ccc1C` the value was 51 to 52.5 °C; for `CCOC(=O)Oc1cc2occ(C(=O)O)c(=O)c2cc1OC(=O)OCC`, 107 to 109 °C; for `Nc1ccc(-c2c(-c3ccccc3)c(-c3ccccc3)c(-c3ccc(N)cc3)c(-c3ccccc3)c2-c2ccccc2)cc1`, 453 °C.
As for `O=C1C(=Cc2ccc(Br)cc2)CCc2cc(OCCn3ccnc3)ccc21`, the figure is 152 to 153 °C; as for `CN(C)CCCC(=O)Cc1ccc2c(c1)Cc1cccnc1O2`, 76 to 78 °C; as for `CC(C)c1cccc(C(C)C)c1NC(=O)C1CC2=C(CCCCCCCCCC2)C1=O` (configuration not stated), 225 to 229 °C.
`CCOC(=O)/C=C(C)/C=C/C=C(C)/C=C/c1c(C)oc(C)c1C`: the melting point lay in the range of 89 to 91 °C.
As for `O=S(=O)(c1ccc(I)cc1)N1CCCC(c2ccc(Cl)c(C(F)(F)F)c2)=N1`, the figure is 153 to 154 °C.
In turn, `CC(=O)Oc1ccc(CCc2cccc(OC(C)=O)c2)cc1` came in with a melting point of 69.5 to 70 °C.
For `COc1cc(N2CCCC2)ncc1NC(=O)c1cc2cc(F)ccc2n1Cc1cccc(F)c1` the value was 196 to 198 °C; for `CC1(C(Cl)(Cl)Cl)C=CC(=O)C=C1`, 103 °C.
For `CCOC(=O)c1cnc2c(SC(=O)N3CCN(Cc4ccc5c(c4)OCO5)CC3)cccn2c1=O` the value was 159 to 161 °C; for `C=CCNc1nc(NC(=O)NC(C)(C)C)c2cc([N+](=O)[O-])ccc2n1`, 200 to 201 °C.
For `CC(=O)Nc1cc(-n2c(=O)cc(C(F)(F)F)[nH]c2=O)c(F)cc1Cl` the value was 264 to 266 °C; for `O=C(NCCCCCCO)Oc1ccc(Oc2ccccc2)cc1`, 72 to 75 °C.
Compound `c1ccc(-c2cc3nc(N4CCOCC4)c4ccccc4c3nn2)cc1` had a melting point of 214 to 216 °C.
`COC(=O)C(Oc1nc(OC)cc(OC)n1)C(C)(N=[N+]=[N-])c1ccccc1` (configuration not stated) registered a melting point of 118 to 120 °C.
For `COc1ccc(C2C3=C(COC3=O)Nc3ccc4cc(C)[nH]c4c32)cc1O` (configuration not stated) the value was 293 to 294 °C; for `Cn1cc(C(N)=O)c(Nc2ccc(C#N)cc2F)cc1=O`, 261 to 266 °C; for `CCc1coc2c(-c3ccc(S(C)(=O)=O)cc3)c(-c3ccc(F)cc3)nn12`, 205 to 208 °C.
For `CCCCSc1nsnc1O` the value was 72 to 72.5 °C; for `O=c1ccc(-c2c(-c3ccccc3)nn3ccccc23)nn1[C@H]1CC[C@@H](C(=O)O)CC1`, 193 to 195 °C; for `COCc1ccc(N2CCN(Cc3c[nH]c4ncccc34)CC2)cc1`, 162 to 163 °C.
In turn, `COC(=O)[C@@H]1C[C@@H](O)CN1S(=O)(=O)c1ccc(Cl)c(COc2cccc3c(C)cc(C)nc23)c1Cl` yielded a melting point of 100 °C.
For `Cc1nnc(-c2ccc3occ(-c4ccccc4)c3c2)o1`, the melting point lay in the range of 117 to 118 °C.
As for `CC(C)(C)c1cc(CNC(=O)Nc2cccc(C(F)(F)F)c2)nn1-c1ccc(S(C)(=O)=O)cc1`, the figure is 162 to 165 °C; as for `O=C(O)CN1C(=O)c2cccc([N+](=O)[O-])c2C1=O`, 200 to 202 °C.
As for `Cn1nccc1CCS(=O)Cc1ccc(OCc2coc(/C=C/c3ccc(C(F)(F)F)cc3)n2)cc1` (configuration not stated), the figure is 172 to 174 °C; as for `CC(=O)NCCn1ccc2ncnc(Nc3ccc(Oc4cccc5sncc45)c(Br)c3)c21`, 132 to 135 °C.
As for `CCN(C1CC(C)(C)Oc2ccc(OCCO)cc21)S(C)(=O)=O` (configuration not stated), the figure is 76 to 78 °C; as for `O=C1c2cc(Cl)c(Cl)cc2C(=O)N1CCCl`, 144 to 145 °C.
`Cc1c(C(=O)CC(C)(C)C)c2ccccc2n1CCCNS(C)(=O)=O`: the melting point fell in the range of 139 to 142 °C.
In turn, `CC(Cc1ccc(Br)cc1)C(=O)NC(C)(C)CO` (configuration not stated) came in with a melting point of 120 to 121 °C.
As for `COc1ccc(-c2nc3cccc(C(=O)NC4CN5CCC4CC5)c3o2)cc1` (configuration not stated), the figure is 166 to 167 °C.
For `CCOC(=O)CC(NC(C)=O)C(=O)c1ccco1` (configuration not stated) the value was 82 to 84 °C; for `Cc1c(SCCN2CCc3ccccc3C2)ccnc1CSc1nc2ccccc2[nH]1`, 90 to 94 °C; for `CN(Cc1ccc(NC(=O)C2=Cc3cc(-c4ccc(C(C)(C)C)cc4)ccc3S(=O)(=O)CC2)cc1)C1CCOCC1`, 247 to 249 °C.
`CCCCC(CC)COc1c(-c2ccc(S(C)(=O)=O)cc2)cnn(-c2ccc(F)cc2)c1=O` (configuration not stated): the melting point lay in the range of 120 to 122 °C.
For `CN(C)S(=O)(=O)CC(CS(=O)(=O)c1ccc(Oc2ccc(OC(F)(F)F)cc2)cc1)N(O)C=O` (configuration not stated) the value was 124 to 126 °C.
For `COC(=O)c1ccc2oc(=S)[nH]c2c1` the value was 218 to 221 °C; for `Cc1nn(-c2cncc(F)c2)cc1I`, 87 to 88 °C; for `Cc1c(CNCC2CCOCC2)[nH]c2c(C)c(NC(=O)c3ccc(OC[C@@H]4CCCO4)cc3)ccc12`, 184 to 185 °C.
For `CC(C)ON=Cc1nn(-c2c(Cl)cc(C(F)(F)F)cc2Cl)c(N)c1S(C)=O` (configuration not stated) the value was 128 to 130 °C; for `Oc1ccc2[nH]cc(C3=CCN(Cc4ccccc4)CC3)c2c1`, 223 to 227 °C.
In the case of `N#Cc1c(Cl)cccc1CBr`, the melting point amounted to 83 °C.
For `CC(C)(C)OC(=O)C[C@H](NC(=O)CNC(=O)c1csc(NC(=O)NCc2ccccc2)n1)C(=O)Nc1ccccc1C(=O)OC(C)(C)C` the value was 116 °C; for `CCCn1c(=O)c(N=O)c(N)n(Cc2ccccc2)c1=O`, 208 to 212 °C; for `C(CCCN1CCCNC1)CCCN1CCCNC1`, 52 to 53 °C.
As for `CN(C)Cc1nc(C#N)nn1-c1ccc(Cl)cc1C(=O)c1ccccc1Cl`, the figure is 117 to 119 °C; as for `O=c1cc(Br)ccn1C1CC1`, 91 to 94 °C.
For `CCCCCCCCCCCCc1c[nH]c(C(=O)OC)c1` the value was 68 to 69 °C.
Regarding `C#C[C@]1(C)CCc2c(C)c(OCc3ccccc3)c(C)c(C)c2O1`, the melting point fell in the range of 88 to 90 °C.
Regarding `CCCOc1ccc2c(c1)C(=O)C[C@H]2c1ccc2c(c1)OCO2`, the melting point lay in the range of 63 to 65 °C.
As for `OC(CCc1cccnc1)CSc1ccc(-c2ccccc2)cc1` (configuration not stated), the figure is 128 to 130 °C; as for `O=C(O)c1cc2ccc(OCCc3ccccc3)cc2oc1=O`, 150 to 151 °C.
As for `COc1ccc2c3c1OC1CC(O)C=CC31CCN(C(=O)Nc1ccccc1)C2` (configuration not stated), the figure is 198 to 199 °C; as for `Fc1ccc(OCCCN2CCC(CNc3nc4ccccc4s3)CC2)c(OCc2ccccc2)c1`, 130 °C.
As for `COCCOc1ccc(NC(=O)OCc2ccccc2)cc1C(=O)O`, the figure is 130 to 131 °C; as for `O=Cc1ccc(Sc2nc3cc(Cl)c(Cl)cc3[nH]2)o1`, 170 °C.
`COCO[C@H]1C(=O)Nc2ccccc2S[C@H]1c1ccc(OC)cc1` came in with a melting point of 125 to 126 °C.
As for `O=C(O)c1ccc(S(=O)(=O)Oc2ccc(CCc3c(Cc4ccccc4)sc4ccccc34)cc2)cc1O`, the figure is 57 to 59 °C; as for `O=C(CN1C(=O)c2ccccc2C1=O)Nc1ccccc1Nc1ccccc1`, 191 °C.
As for `O=C(O)c1ccc(C(=O)NCCc2ccccc2)cc1`, the figure is 237 to 238 °C.
As for `N=C(NO)c1nc(-c2ccc(C(F)(F)F)cc2)cc(C(F)(F)F)n1`, the figure is 224 °C; as for `Nc1nc(N)nc(C2CCN(c3ccccc3)CC2)n1`, 202 to 204 °C; as for `Cc1noc(C)c1Cn1cc(N2C(=O)CN(CCc3cccc(F)c3)C2=O)cn1`, 110 to 111 °C.
`COc1ccc(-c2cc(=O)n(CCc3ccc(Cl)cc3Cl)nc2-c2ccc(OC)cc2)cc1` showed a melting point of 119 to 120 °C.
For `Cc1ccc2c(C(=O)C3CSC(c4cccnc4)N3)c[nH]c2c1` (configuration not stated) the value was 132 to 138 °C; for `CNC(=O)[C@@H]1C[C@H](OC)CN1S(=O)(=O)c1ccc(Cl)c(COc2cccc3c(-n4ccnc4)cc(C)nc23)c1Cl`, 64 °C; for `COC(=O)c1ccc(NC(=O)c2cc(C(C)C)c(C(C)C)s2)cc1F`, 146 to 147 °C.
As for `CCCCN1C(=O)c2cncnc2Nc2ccccc21`, the figure is 145 to 147 °C.

As usually defined, the melting point is the temperature, or range, at which the solid turns liquid.
